The results in this text go back to article PMC1253752, “Binding of Estrogenic Compounds to Recombinant Estrogen Receptor-α: Application to Environmental Analysis” (Environmental Health Perspectives, 2004).

Like-named read-outs stand apart in the source and are kept apart here.

Data set [1] addresses T1, recombinant ER-α (hER-αLBD triple mutant) (Homo sapiens, UniProt P03372, C381S/C417S/C530S).
T1 sequence (P03372 302-552 C381S/C417S/C530S): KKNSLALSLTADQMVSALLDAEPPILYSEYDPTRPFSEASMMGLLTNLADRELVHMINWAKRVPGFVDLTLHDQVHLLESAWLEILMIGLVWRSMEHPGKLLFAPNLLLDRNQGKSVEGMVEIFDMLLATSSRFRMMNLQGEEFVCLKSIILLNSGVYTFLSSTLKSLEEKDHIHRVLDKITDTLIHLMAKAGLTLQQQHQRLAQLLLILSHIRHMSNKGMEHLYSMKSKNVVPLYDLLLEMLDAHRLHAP
The following applies: for RBA: ratio of IC50 values of E2 to competitor, E2 set at 100.

In data set [2] the target is T1, recombinant ER-α (hER-αLBD triple mutant). The experiment in a line: biochemical.
The target in data set [3] is T2, ER-α (Homo sapiens, UniProt P03372).
T2 construct: we transfected ER-α–positive breast cancer MCF-7 cells; endogenous in cells; host or cells: MELN (MCF-7 stably transfected with ERE-βGlob-Luc-SVNeo)
T2 sequence (P03372 1-595): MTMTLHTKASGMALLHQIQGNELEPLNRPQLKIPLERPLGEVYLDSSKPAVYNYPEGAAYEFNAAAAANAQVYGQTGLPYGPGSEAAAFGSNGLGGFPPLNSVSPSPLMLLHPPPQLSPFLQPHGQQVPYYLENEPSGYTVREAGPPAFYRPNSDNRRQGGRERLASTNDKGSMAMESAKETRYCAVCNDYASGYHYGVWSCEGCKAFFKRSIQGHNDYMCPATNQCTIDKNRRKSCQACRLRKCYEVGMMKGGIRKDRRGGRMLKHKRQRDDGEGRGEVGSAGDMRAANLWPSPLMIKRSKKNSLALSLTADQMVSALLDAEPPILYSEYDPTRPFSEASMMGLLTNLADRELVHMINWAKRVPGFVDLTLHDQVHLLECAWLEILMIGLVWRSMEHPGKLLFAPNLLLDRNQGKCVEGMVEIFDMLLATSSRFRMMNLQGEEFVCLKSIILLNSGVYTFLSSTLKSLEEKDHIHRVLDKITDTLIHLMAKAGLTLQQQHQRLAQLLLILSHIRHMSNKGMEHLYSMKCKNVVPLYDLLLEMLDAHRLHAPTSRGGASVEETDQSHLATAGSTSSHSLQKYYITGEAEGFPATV
As to the kind of experiment: MELN cell luciferase assay (estrogen-responsive reporter in MCF-7 cells). Format: cell-based. The protocol:
Selection of resistant clones by geneticin was performed at 1 mg/mL.
(§1) For strain cultures, cells were grown in phenol red containing Dulbecco’s modified Eagle medium, 1 g/L glucose, supplemented with 5% fetal calf serum (FCS), and 1% antibiotic (penicillin/streptomycin) in a 5% CO2 humidified atmosphere at 37°C.
Cells were seeded at a density of 5 × 10^4 cells/well in 96-well white opaque tissue culture plates (Becton Dickinson, Le Pont de Claix, France) in 150 μL test culture medium. Compounds to be tested were prepared 4× concentrated in the same medium and 50 μL was added per well 8 hr after seeding. Cells were incubated with compounds for 16 hr. Experiments were performed in quadruplicate and repeated twice. At the end of incubation, effector containing medium was removed and replaced by […], luciferin diffuses into the cell and produces a luminescent signal that is stable from 5 min on. […] The 96-well plate was then introduced in a microplate luminometer (Centro LB 960, Berthold Technologies), and intact living cell luminescence measured for 2 sec. Results are expressed as a percentage of maximum luciferase activity. […] GraphPad Software Inc., San Diego, CA, USA). […]

The target of data set [4] is T2, ER-α. The format is cell-based. The method, then:
Ten nanomoles of recombinant ER-αwere immobilized on 500 μL Ni-NTA-agarose phase. […] After rolling for 16 hr, flow-through and three 500-μL washings with WB were collected. Liganded receptor was then eluted with 3 × 500 μL EB, and eluate was heated at 65°C for 30 min in order to denature recombinant ER-α. Collected fractions were diluted 10-fold in culture medium before their relative estrogenic activity was evaluated with MELN reporter cells.
Flow-through (1.5 mL), washing, and elution fractions (500 μL) were collected. Precolumn and flow-through fractions were diluted 10-fold in culture medium before their relative activities were evaluated with MELN and HAhLP reporter cells. Washing and elution fractions were diluted 30-fold in culture medium to take into account the fact that they were 3× concentrated.

For data set [5], the target named is T3, AhR (Homo sapiens, UniProt P35869).
T3 construct: The dioxin reporter cell line was obtained by transfecting HeLa cells with CYP1A1-Luc and pSG5-puro plasmids; endogenous in cells; host or cells: HAhLP (HeLa stably transfected with CYP1A1-Luc and pSG5-puro)
T3 sequence (P35869 11-848): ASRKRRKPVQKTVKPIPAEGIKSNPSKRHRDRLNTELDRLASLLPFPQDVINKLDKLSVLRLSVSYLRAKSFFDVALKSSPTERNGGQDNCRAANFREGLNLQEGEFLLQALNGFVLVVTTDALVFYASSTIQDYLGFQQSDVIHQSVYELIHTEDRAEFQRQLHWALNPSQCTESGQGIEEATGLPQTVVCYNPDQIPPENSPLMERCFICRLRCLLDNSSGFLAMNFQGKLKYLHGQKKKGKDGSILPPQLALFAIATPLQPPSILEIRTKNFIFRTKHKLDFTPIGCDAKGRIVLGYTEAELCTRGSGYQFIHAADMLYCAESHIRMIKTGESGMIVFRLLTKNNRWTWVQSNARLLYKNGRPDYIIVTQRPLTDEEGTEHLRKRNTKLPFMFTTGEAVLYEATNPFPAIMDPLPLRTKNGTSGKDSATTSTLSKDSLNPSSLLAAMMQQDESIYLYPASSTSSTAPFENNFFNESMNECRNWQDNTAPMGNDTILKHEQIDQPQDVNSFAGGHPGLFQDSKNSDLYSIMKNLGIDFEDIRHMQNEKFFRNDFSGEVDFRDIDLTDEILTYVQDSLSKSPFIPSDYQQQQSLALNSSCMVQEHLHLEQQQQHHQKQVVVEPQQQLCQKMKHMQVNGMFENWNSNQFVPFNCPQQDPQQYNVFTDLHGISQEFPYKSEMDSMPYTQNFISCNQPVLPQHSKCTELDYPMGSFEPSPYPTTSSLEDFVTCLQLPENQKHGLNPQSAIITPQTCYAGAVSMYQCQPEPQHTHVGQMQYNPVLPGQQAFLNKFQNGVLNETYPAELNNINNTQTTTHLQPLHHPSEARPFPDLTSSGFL
The experiment in a line: HAhLP cell luciferase assay (CYP1A1-Luc reporter in HeLa cells). The format is cell-based. The conditions noted are these: read-out: EC50 value, induction of luciferase expression. The protocol:
The dioxin reporter cell line was obtained by transfecting HeLa cells with CYP1A1-Luc and pSG5-puro plasmids. Selection of resistant clones by puromycin was performed at 0.5 μg/mL. The most dioxin-responsive clone was denominated HAhLP 1.15. […].
as §1
Cells were seeded at a density of 5 × 10^4 cells/well in 96-well white opaque tissue culture plates (Becton Dickinson, Le Pont de Claix, France) in 150 μL test culture medium. Compounds to be tested were prepared 4× concentrated in the same medium and 50 μL was added per well 8 hr after seeding. Cells were incubated with compounds for 16 hr. Experiments were performed in quadruplicate and repeated twice. […] The 96-well plate was then introduced in a microplate luminometer (Centro LB 960, Berthold Technologies), and intact living cell luminescence measured for 2 sec. Results are expressed as a percentage of maximum luciferase activity. […]
Sediment and water methanol extracts were applied to MELN and HAhLP cells at 0.3% (vol/vol) maximal concentration in test culture medium, and luciferase transactivation was measured.

For data set [6], the target named is T4, recombinant ER-α (Homo sapiens, UniProt P03372, C381S/C417S/C530S).
T4 construct: hER-αLBD(Lys302 → Pro552); made in house; host or cells: Escherichia coli BL21 DE3
T4 sequence (P03372 302-552 C381S/C417S/C530S): T1 sequence (P03372 302-552 C381S/C417S/C530S)
The format is cell-based. The conditions noted are these: compound at concentration giving about 80% MELN transactivation, 1-100 nM recombinant ER-α. The protocol:
MELN cells were seeded in 96-well white opaque tissue culture plates as described above. In separate tubes, estrogenic compounds at nonsaturating concentration mediating about 80% MELN cell activity or 0.1% methanol extract for environmental samples, were prepared 4×-concentrated and preincubated with the same volume of 4×-concentrated purified recombinant ER-α(1–100 nM final concentration) in test culture medium at 4°C for 16 hr. Medium from MELN cell culture plates was then removed and replaced by 100 μL of test culture medium supplemented with the same volume of preincubation medium. After 6 hr incubation at 37°C, luciferase activity was determined.

The mark [7] stands for this setting: half-maximal induction in MELN cell line, 16 hr, read-out: EC50 ± SE.
The mark [8] stands for this setting: ratio of EC50 values of E2 to compound, E2 set at 100.
Setting [9] is: compound applied at 3 nM, 10 nM E2 = 100.
[10] abbreviates: compound applied at 300 nM, 10 nM E2 = 100.

For `CCCCCCCCCc1ccc(O)cc1` [4-NP, 4n-nonylphenol], in data set [1], the RBA is listed as 0.11. In addition, the IC50 (usually the concentration that inhibits the measured activity by half) in data set [2] is 5600 nM. The RTP in data set [3] is on record as 0.00016. In addition, the EC50 (commonly the concentration at which the effect is half-maximal) in data set [3] (setting [7]) was determined as 11000 nM.

`ClC(Cl)=C(c1ccc(Cl)cc1)c1ccc(Cl)cc1` [4,4′-DDE]: the EC50 in data set [3] (setting [7]) worked out at 25600 nM. Besides, the RTP in data set [3] (setting [8]) stood at 0.00007.

With `CC(C)(c1ccc(O)cc1)c1ccc(O)cc1` [BPA, bisphenol A], in data set [4], the “Induction of luciferase activity, Elution” value (shortened to “Induction … Elution”) is reported as 70 ± 2%; the “Induction of luciferase activity, Flow-through” value (from here on “Induction … Flow-through”) is 17 ± 2%; the “Induction of luciferase activity, Precolumn” value (from here on “Induction … Precolumn”) is given as 70 ± 6%; the “Induction of luciferase activity, Washing” value (shortened to “Induction … Washing”) worked out at 16 ± 2%.

Take `Clc1cc2c(cc1Cl)Oc1cc(Cl)c(Cl)cc1O2` [dioxin]: the EC50 in data set [5] is 0.2 nM. In addition, the “activation of MELN cells” value in data set [3] (MELN cells) is “able to partially activate MELN cells”.

For `C[C@H]1CCC[C@H](O)CCCCCc2cc(O)cc(O)c2C(=O)O1` [α -Zearalanol, α-zearalanol], in data set [4] (setting [9]), the “Induction … Elution” value is on record as 82 ± 6%; the “Induction … Flow-through” value is on record as 17 ± 2%; the “Induction … Precolumn” value was found to be 88 ± 2%; the “Induction … Washing” value is reported as 16 ± 1%. Moreover, the EC50 in data set [3] (setting [7]) came out at 0.135 nM. In addition, in data set [3] (setting [8]), the RTP was determined as 13.0.

`O=S1(=O)OC(c2ccc(O)cc2)(c2ccc(O)cc2)c2ccccc21` [Phenol red, phenol red]: in data set [4], the “Induction … Elution” value was found to be 40 ± 4%; the “Induction … Flow-through” value came out at 16 ± 2%; the “Induction … Precolumn” value came to 36 ± 5%; the “Induction … Washing” value stood at 15 ± 3%. Also, the RTP in data set [3] stood at 0.00005. The EC50 in data set [3] (setting [7]) was determined as 36900 nM.

For the compound nonylphenol mixture [NPm], in data set [4] (setting [10]), the “Induction … Elution” value is 56 ± 2%; the “Induction … Flow-through” value turned out to be 17 ± 1%; the “Induction … Precolumn” value was 57 ± 4%; the “Induction … Washing” value was 16 ± 2%. Further, the RBA in data set [1] came to 0.32. The IC50 in data set [1] (read-out: IC50 ± SE, 0.75 pmol recombinant ER-α, 2 nM [3H]-E2, 500 μL, 4°C 16 hr) was 1860 nM. In addition, the “capture by recombinant ER-α / inhibition of transactivation” value in data set [6] is given as “only a slight or no inhibition”. Further, the EC50 in data set [3] (setting [7]) worked out at 339 nM. The RTP in data set [3] (setting [8]) stood at 0.0051.

As for `ClC(Cl)=C(c1ccc(Cl)cc1)c1ccccc1Cl` [2,4′-DDE], the EC50 in data set [3] (setting [7]) was 2740 nM. The RTP in data set [3] (setting [8]) is 0.00063.

Turning to `C[C@H]1CCCC(=O)CCC/C=C/c2cc(O)cc(O)c2C(=O)O1` [Zearalenone, zearalenone], the “capture by recombinant ER-α / inhibition of transactivation” value in data set [6] was “captured less efficiently than was E2”. Besides, the EC50 in data set [3] came to 0.313 nM. Also, in data set [3] (setting [8]), the RTP amounted to 5.62.
